Test [1] has as its system Erythrocyte. Description: Anti-inflammatory activity in human RBC assessed as membrane stabilization relative to control. Format: functional. Further details: concentration or dose not given beside the values.
Test [2] concerns Erythrocyte. Description: Anti-inflammatory activity in human RBC assessed as membrane stabilization. It is filed as functional, cell-based.
The species named for a further test is Capra hircus. Put plainly: Inhibition of hydrogen potassium ATPase in goat stomach mucosal membrane assessed as decrease in inorganic phosphate production using ATP as substrate after 10 to 15 mins by spectrophotometric analysis relative to omeprazole. It is filed as cell membranes. The arrangement: concentration or dose not given beside the values.
Test [3] can be described thus: Inhibition of hydrogen potassium ATPase in goat stomach mucosal membrane assessed as decrease in inorganic phosphate production using ATP as substrate after 10 to 15 mins by spectrophotometric analysis. It is filed as cell membranes, Capra hircus.

Consider `COCCCOc1ccnc(COc2ccc(CS(=O)(=O)c3nc4cc(OC(F)F)ccc4[nH]3)cc2OC)c1C`, for which the Activity with Erythrocyte [1] is on record as 96.42%. In the test on Erythrocyte [2], the IC50 was determined as 142 nM. Besides, the inhibition in the test filed under Capra hircus was determined as 96.3%. Also, in test [3], the IC50 was 124 nM and the Ki lay within 25 to 1240 nM.
`COc1cc(CS(=O)(=O)c2nc3ccccc3[nH]2)ccc1OCc1nccc(OC)c1OC`: in the test on Erythrocyte [1], the Activity is on record as 91.12%. For the same compound, in the test on Erythrocyte [2], the IC50 came out at 212 nM. In the test listed under Capra hircus, the inhibition was found to be 92%. Further, in test [3], the IC50 is 228 nM and the Ki was in the range of 25 to 1240 nM.
The matching figures for `COc1ccc2[nH]c(S(=O)(=O)Cc3ccc(OCc4ncc(C)c(OC)c4C)c(OC)c3)nc2c1`: 76.23%, 1210 nM, 76.3%, 1150 nM and 25 to 1240 nM.
For `O=C(O)Cc1ccccc1Nc1c(Cl)cccc1Cl` [DICLOFENAC], the Activity with Erythrocyte [1] was 82.24%. Also, the IC50 in the test with Erythrocyte [2] stood at 942 nM.
In the case of `COc1ccc2[nH]c([S+]([O-])Cc3ncc(C)c(OC)c3C)nc2c1` (centres undefined) [OMEPRAZOLE], the inhibition in the test listed under Capra hircus was determined as 82.1%. In test [3], the IC50 is 980 to 1010 nM.
In the case of `COc1cc(CS(=O)(=O)c2nc3cc(OC(F)F)ccc3[nH]2)ccc1OCc1nccc(OCC(F)(F)F)c1C`, the Activity in the test on Erythrocyte [1] is 70.28%. Besides, in the test with Erythrocyte [2], the concentration for half-maximal inhibition (IC50) amounted to 1880 nM. In addition, the inhibition in the test listed under Capra hircus was determined as 70.6%. Moreover, in test [3], the IC50 worked out at 1660 nM and the Ki was 25 to 1240 nM.
Turning to `COc1ccc2[nH]c(S(=O)(=O)Cc3ccc(OCc4nccc(OC)c4OC)c(OC)c3)nc2c1`, the Activity in the test with Erythrocyte [1] came to 78.42%. Moreover, the IC50 in the test with Erythrocyte [2] is 898 nM. In addition, in the test listed under Capra hircus, the inhibition came out at 78.2%. For the same compound, in test [3], the IC50 worked out at 918 nM and the Ki lay within 25 to 1240 nM.
The matching figures for `COCCCOc1ccnc(COc2ccc(CS(=O)(=O)c3nc4ccccc4[nH]3)cc2OC)c1C`: 88.45%, 355 nM, 81%, 355 nM and 25 to 1240 nM.
As for `COc1cc(CS(=O)(=O)c2nc3ccccc3[nH]2)ccc1OCc1nccc(OCC(F)(F)F)c1C`, the Activity in the test with Erythrocyte [1] is recorded as 74.21%. Further, the IC50 with Erythrocyte [2] was 1310 nM. Besides, the inhibition in the test filed under Capra hircus was determined as 74.9%. Besides, in test [3], the half-maximal inhibitory concentration (IC50) was 1290 nM and the inhibition constant (Ki) fell in the range of 25 to 1240 nM.
In the case of `COc1cc(CS(=O)(=O)c2nc3cc(OC(F)F)ccc3[nH]2)ccc1OCc1ncc(C)c(OC)c1C`, the Activity in the test with Erythrocyte [1] is listed as 73.56%. In addition, the IC50 with Erythrocyte [2] came to 1420 nM. In the test filed under Capra hircus, the inhibition was 73.2%. In test [3], the IC50 was 1360 nM and the inhibition constant Ki lay within 25 to 1240 nM.
The matching figures for `COCCCOc1ccnc(COc2ccc(CS(=O)(=O)c3nc4cc(OC)ccc4[nH]3)cc2OC)c1C`: 79.41%, 817 nM, 80.2%, 814 nM and 25 to 1240 nM.
As to `COc1cc(CS(=O)(=O)c2nc3cc(OC(F)F)ccc3[nH]2)ccc1OCc1nccc(OC)c1OC`, the Activity with Erythrocyte [1] is given as 94.11%. For the same compound, the IC50 is 186 nM with Erythrocyte [2] and 198 nM in test [3]. Also, the inhibition in the test listed under Capra hircus stood at 94.4%. The Ki in test [3] was in the range of 25 to 1240 nM.
Take `COc1ccc2[nH]c(S(=O)(=O)Cc3ccc(OCc4nccc(OCC(F)(F)F)c4C)c(OC)c3)nc2c1`: the Activity in the test with Erythrocyte [1] stood at 71.58%. Moreover, the IC50 with Erythrocyte [2] stood at 1760 nM; in test [3], 1460 nM. Moreover, the inhibition in the test filed under Capra hircus was 72%. The Ki in test [3] fell in the range of 25 to 1240 nM.
In the case of `COc1cc(CS(=O)(=O)c2nc3ccccc3[nH]2)ccc1OCc1ncc(C)c(OC)c1C`, the Activity in the test with Erythrocyte [1] is 70.41%. For the same compound, the half-inhibitory concentration (IC50) in the test on Erythrocyte [2] was 1820 nM. The inhibition in the test filed under Capra hircus was determined as 70.5%. In test [3], the IC50 came out at 1680 nM and the Ki is 25 to 1240 nM.

As usually defined, the IC50 is the concentration needed to halve the response being measured. One may read the inhibition as the relative decrease from the control value, in per cent. The Ki is the dissociation constant of the complex between target and ligand, obtained from inhibition or displacement.

These data come from ChEMBL document CHEMBL4190327, “Substituted methoxybenzyl-sulfonyl-1H-benzo[d]imidazoles evaluated as effective H+/K+-ATPase inhibitors and anti-ulcer therapeutics” (Eur J Med Chem, 2017).
